The assay relates to GUMC-403. Nature of the assay: viability at highest tested concentration (max response) relative to DMSO (% of DMSO control); higher = less cytotoxic. The conditions noted are these: library / dose series: MIPE library, 11-point 1:3 dilution; top concentration 46.1 µM; 48 h. The essentials:
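Viability at the highest tested concentration is given relative to vehicle control. For this, conditionally reprogrammed patient-derived GUMC-403 papilloma cells at 700/well in 1536-well plates were exposed to 23 nL of pinned compound for 48 h. Luminescence from CellTiter-Glo was read on a ViewLux and scaled between empty wells (0%) and vehicle wells (100%).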

The values below come from the supplement of paper PMC6723410.

`C[C@@H](Oc1cc(-c2cnn(C3CCNCC3)c2)cnc1N)c1c(Cl)ccc(F)c1Cl` yielded a viability of 76.6.

Turning to `N#Cc1c(C2CCNCC2)cc(-c2c(O)cccc2OCC2CC2)nc1N`, the viability came out at 103.

For `C[S+](=O)([O-])c1ccc(C(=O)Nc2ccc(Cl)c(-c3ccccn3)c2)c(Cl)c1`, the viability is 100.

`C/C(O)=C(\C#N)C(=O)Nc1ccc(C(F)(F)F)cc1`: the viability is 94.3.

`O=P1(NCCCl)OCCCN1CCCl` (stereo not drawn) came in with a viability of 107.

Compound `Cc1ccc(C(=O)Nc2cccc(C(F)(F)F)c2)cc1Nc1nc(-c2cccnc2)nc2c1cnn2C` showed a viability of 87.4.

Compound `COc1cc(C(=O)N2CCC(N3CCN(C)CC3)CC2)ccc1Nc1ncc2c(n1)N(C)c1ccccc1C(=O)N2C` yielded a viability of 78.9.

As for `OC(=O)C(CC/1=C/C(=O)NC2=CC=CC=C12)NC(=O)C3=CC=C(Cl)C=C3` (stereo not drawn), the viability stood at 132.

Regarding `Cc1cc(C(=O)N2CCN(c3cccc(Cl)c3)CC2)n(-c2ccccc2)n1`, the viability worked out at 101.

`CCOC(=O)[C@H](CCc1ccccc1)N[C@@H](C)C(=O)N1CCC[C@H]1C(=O)O` showed a viability of 125.

For `CC(C)(Sc1ccc(CCN(CCCCC2CCCCC2)C(=O)NC2CCCCC2)cc1)C(=O)O`, the viability stood at 109.

The compound `O=C([O-])Cc1ccccc1Nc1c(Cl)cccc1Cl` showed a viability of 104.

`CC1OC(OC/2=C(/OC3=C(C(=CC(=C3)O)O)C2=O)C4=CC=C(O)C=C4)C(O)C(OC(C)=O)C1OC(C)=O` (stereo not drawn): the viability stood at 116.

As to `NC/1=N/C(=O)C2=C(N1)[N](C=N2)[C@@H]3C[C@H](O)[C@@H](CO)C3=C`, the viability is 100.

For the compound `CN(C(=O)c1ccc(F)cc1C(F)(F)F)C1CCN(c2nnc(-c3ccnn3C)c3ccccc23)CC1`, the viability was 78.1.

Compound `COC1(C[S+]([O-])c2ccccc2)CCN(CCc2c[nH]c3ccc(F)cc23)CC1` (stereo not drawn) registered a viability of 101.

On to `COc1ccc(C(CN(C)C)C2(O)CCCCC2)cc1` (stereo not drawn), for which the viability amounted to 100.

As to `C\C1=C(\C=C(\C#N)C(=O)N1)C2=CC=NC=C2`, the viability was 119.

`OC[C@H](Cc1ccccc1)Nc1nc(Oc2ccc3c(c2)CCC3)nc2c1ncn2Cc1ccc(-c2ccccc2)cc1` had a viability of 101.

In turn, `Cl.Cl.Cl.O[C@@H](COc1cccc2ncccc12)CN1CCN([C@@H]2c3ccccc3[C@@H]3[C@H](c4ccccc42)C3(F)F)CC1` yielded a viability of 70.9.

`COc1c(N2C[C@@H]3CCCN[C@@H]3C2)c(F)cc2c(=O)c(C(=O)O)cn(C3CC3)c12.Cl.O`: the viability is 133.

In the case of `CCCCOc1ccc(C(=O)Nc2ccc(F)cc2F)cc1`, the viability came to 101.

Turning to `COC1=CC2=C(C=C1OC)[C@H]3[C@@H](CO2)OC4=C(C=CC5=C4\C=C/C(C)(C)O5)C3=O`, the viability was found to be 115.

Turning to `CC/1=C(/N2[C@H](SC1)[C@H](NC(=O)[C@H](N)\C3=C\C\C=C/C3)C2=O)C(O)=O`, the viability worked out at 121.

The compound `CC[S+](=O)([O-])N1CC(CC#N)(n2cc(-c3ncnc4[nH]ccc34)cn2)C1` had a viability of 144.

As for `CCCc1nc(C(C)(C)O)c(C(=O)O)n1Cc1ccc(-c2ccccc2-c2nn[nH]n2)cc1`, the viability was found to be 107.

On to `CN1CCN(c2cccc(Nc3nc4c(-c5ccc([S+](C)(=O)[O-])cc5)cccn4n3)c2)CC1`, for which the viability amounted to 125.

`O=[N+]([O-])c1cnc(Sc2nnc(O)n2-c2ccc3c(c2)OCCO3)s1` returned a viability of 91.3.

In the case of `C/C=C/C/C=C/CCC(=O)[C@H]1O[C@H]1C(N)=O`, the viability came to 93.5.

`Cc1ncc([N+](=O)[O-])n1CC(C)O` (stereo not drawn): the viability worked out at 110.

The compound `C/C(=C\c1csc(C)n1)[C@@H]1C[C@@H]2O[C@]2(C)CCC[C@H](C)[C@H](O)[C@@H](C)C(=O)C(C)(C)[C@@H](O)CC(=O)O1` displayed a viability of 102.

Take `Cc1ccc(C(C)(O)c2nc3ccccc3s2)c(C)c1` (stereo not drawn): the viability was 115.

As for `c1cc(CN2CCCNCCNCCCNCC2)ccc1CN1CCCNCCNCCCNCC1`, the viability worked out at 144.

On to `CC1=C(CC/C(C)=C/CCC2=CCC(C3=CC(=O)OC3O)OC2O)C(C)(C)CCC1` (stereo not drawn), for which the viability came out at 99.7.

With `CC(C[N+](C)(C)C)OC(N)=O` (stereo not drawn), the viability came out at 101.

Regarding `CCC(=O)N[C@H]1CC[C@H](C(=O)N(C)c2ccc(-c3nc4ccccc4o3)cc2)C1`, the viability amounted to 84.8.

`NC\1=N\C(=O)N(\C=C1F)[C@H]2C[C@H](O)[C@@H](CO)O2` registered a viability of 108.

Take `CC(=O)Oc1ccccc1C(=O)O`: the viability is 118.

On to `COc1cnc(N[S+](=O)([O-])c2ccc(N)cc2)nc1`, for which the viability turned out to be 115.

`O=C1NC(=O)/C(=C/c2cccc(C(F)(F)F)c2)S1` yielded a viability of 106.

With `CCCNC(=O)Nc1ccc(Oc2ncnc3cc(OC)c(OC)cc23)cc1Cl`, the viability is 92.2.

For `O=C([O-])[C@H](CC(=O)N1C[C@H]2CCCC[C@H]2C1)Cc1ccccc1`, the viability worked out at 144.

The compound `c1ccc2c(Cc3c[nH]c4ccccc34)c[nH]c2c1` came in with a viability of 75.9.

`ClC1=CC=C2N/C3=N/C(=O)CN3CC2=C1Cl`: the viability amounted to 94.9.

Compound `O=C(CCc1ccc(O)cc1)c1c(O)cc(O)cc1O[C@@H]1O[C@H](CO)[C@@H](O)[C@H](O)[C@H]1O` yielded a viability of 98.5.

As for `Nc1ccc(C(=O)c2cc3c(ccc4ccccc43)[nH]2)cc1`, the viability was found to be 109.

`Cc1ccccc1C(=O)c1ccc(Nc2ccc(Br)cc2N)cc1Cl` gave a viability of 103.

Compound `C[S+](=O)([O-])Oc1ccc2c(NC(N)=O)c(C(=O)c3ccc(Cl)cc3Cl)oc2c1` displayed a viability of 108.

In turn, `CCOC(=O)[C@H](CCc1ccccc1)N[C@H]1CCc2ccccc2N(CC(=O)O)C1=O` yielded a viability of 124.

`O=C(/C=C/c1c(C(=O)[O-])[nH]c2cc(Cl)cc(Cl)c12)Nc1ccccc1` registered a viability of 111.

Turning to `CN(C)CCc1c[nH]c2ccc(C[C@H]3COC(=O)N3)cc12`, the viability came out at 106.

`O=C(C1CCCCC1)N1CC(=O)N2CCc3ccccc3C2C1` (stereo not drawn) displayed a viability of 109.

For `C#C[C@]1(O)CC[C@H]2[C@@H]3CCc4cc(O)ccc4[C@H]3CC[C@@]21C`, the viability turned out to be 74.3.

As to `CCN(CCO)CCCOc1ccc2c(Nc3cc(CC(=O)Nc4cccc(F)c4)[nH]n3)ncnc2c1`, the viability came to 105.

Turning to `CNc1nccc(-c2cccnc2Oc2cc(C(=O)Nc3cccc(C(F)(F)F)c3)ccc2C)n1`, the viability was determined as 98.

As for `Cc1ccccc1C(OCCN(C)C)c1ccccc1` (stereo not drawn), the viability was found to be 127.

For the compound `OC[C@H]1O[C@@H](O[C@@H]2O\C=C(/[C@H]3C\C=C(CO)/[C@@H]23)C(O)=O)[C@H](O)[C@@H](O)[C@@H]1O`, the viability was determined as 124.

`CC1=C(CC(=O)O)c2cc(F)ccc2/C1=C\c1ccc([S+](C)[O-])cc1` (stereo not drawn) displayed a viability of 59.8.

Consider `CC(Cc1ccc(O)c(O)c1)(NN)C(=O)O` (stereo not drawn), for which the viability was 96.

`CN(C(Cc1ccc(O[S+](=O)([O-])c2cccc3cnccc23)cc1)C(=O)N1CCN(c2ccccc2)CC1)[S+](=O)([O-])c1cccc2cnccc12` (stereo not drawn) displayed a viability of 83.2.

The compound `CCOP(=O)(OCC)C(C)NC(=O)N(CCCl)N=O` (stereo not drawn) came in with a viability of 111.

On to `Cl.Cl.Clc1ccc(Nc2nnc(Cc3ccncc3)c3ccccc23)cc1`, for which the viability is 101.

Consider `CC1(C)Cc2c(-c3ccccc3)c(-c3ccc(Cl)cc3)c(CC(=O)O)n2C1`, for which the viability stood at 102.

`OC1=C(O)C2=C(\C=C/C(=O)O2)C=C1` came in with a viability of 110.

Compound `OC1=CC2=C(C(=C1)O)C(=O)\C(=C(/O2)C3=CC(=C(O)C=C3)O)O` registered a viability of 147.

`Oc1cc(O)cc(/C=C/c2ccc(O)c(O)c2)c1` gave a viability of 91.7.

Take `CO[C@H]1/C=C/O[C@@]2(C)Oc3c(C)c(O)c4c(O)c(c5c(nc6cc(C)ccn65)c4c3C2=O)NC(=O)/C(C)=C\C=C\[C@H](C)[C@H](O)[C@@H](C)[C@@H](O)[C@@H](C)[C@H](OC(C)=O)[C@@H]1C`: the viability turned out to be 133.

Compound `OC(CN1CCN(c2cccc(Cl)c2)CC1)C(c1ccccc1)c1ccccc1` (stereo not drawn) registered a viability of 92.

`N[C@@H]1C[C@H]1c1ccccc1` returned a viability of 108.

`C[C@](N)(Cc1ccc(O)c(O)c1)C(=O)O` returned a viability of 89.6.

`C[C@]12CCC\3=C\4CCC(=O)\C=C4CC[C@H]3[C@@H]1CC[C@@]2(O)CC#N` yielded a viability of 122.

As to `C=C(c1ccc(C(=O)O)cc1)c1cc2c(cc1C)C(C)(C)CCC2(C)C`, the viability is 97.6.

In turn, `COc1cc(C)c(Sc2cnc(NC(=O)c3ccc(CNC(C)C(C)C)cc3)s2)cc1C(=O)N1CCN(C(C)=O)CC1` (stereo not drawn) displayed a viability of 85.7.

`C=C1C[C@@]2(O)O[C@@]3(C[C@H]2C(C)C)[C@@H](C)CC[C@@H]13` gave a viability of 127.

In the case of `O=C(NNC(=O)c1ccc(CN[S+](=O)([O-])c2ccc(F)c(Cl)c2)cc1)c1ccccc1`, the viability worked out at 129.

`COc1cccc(N(C)C(=S)Oc2ccc3c(c2)CCCC3)n1` came in with a viability of 126.

Compound `O=C1N\2CCC3=C([NH]C4=C3C=CC=C4)C2=N/C5=CC=CC=C15` had a viability of 109.

For the compound `Cc1ccc(Nc2cc(-c3cccc(N4C(=O)c5ccccc5C4=O)c3)ncn2)cc1N[S+](C)(=O)[O-]`, the viability was determined as 117.
